Source: patent US10689366B2, “Compounds for MALT1 degredation” (Cornell University, priority 2016, dated 2020)
Where two headings read alike, the source gives them in different places.

Tests used:
MALT1 [1] = biological target: T1, MALT1 (Homo sapiens, UniProt Q9UDY8); assay: Mechanistic validation of MALT1 degradation in wild type and CRBN knockout 293T cells (Western blot); format: cell-based; set-up: endogenous in cells; conditions: wild type vs CRBN knockout 293T cells, 10 μM, 24 hours; FIG. 2
T1 sequence (Q9UDY8 1-824): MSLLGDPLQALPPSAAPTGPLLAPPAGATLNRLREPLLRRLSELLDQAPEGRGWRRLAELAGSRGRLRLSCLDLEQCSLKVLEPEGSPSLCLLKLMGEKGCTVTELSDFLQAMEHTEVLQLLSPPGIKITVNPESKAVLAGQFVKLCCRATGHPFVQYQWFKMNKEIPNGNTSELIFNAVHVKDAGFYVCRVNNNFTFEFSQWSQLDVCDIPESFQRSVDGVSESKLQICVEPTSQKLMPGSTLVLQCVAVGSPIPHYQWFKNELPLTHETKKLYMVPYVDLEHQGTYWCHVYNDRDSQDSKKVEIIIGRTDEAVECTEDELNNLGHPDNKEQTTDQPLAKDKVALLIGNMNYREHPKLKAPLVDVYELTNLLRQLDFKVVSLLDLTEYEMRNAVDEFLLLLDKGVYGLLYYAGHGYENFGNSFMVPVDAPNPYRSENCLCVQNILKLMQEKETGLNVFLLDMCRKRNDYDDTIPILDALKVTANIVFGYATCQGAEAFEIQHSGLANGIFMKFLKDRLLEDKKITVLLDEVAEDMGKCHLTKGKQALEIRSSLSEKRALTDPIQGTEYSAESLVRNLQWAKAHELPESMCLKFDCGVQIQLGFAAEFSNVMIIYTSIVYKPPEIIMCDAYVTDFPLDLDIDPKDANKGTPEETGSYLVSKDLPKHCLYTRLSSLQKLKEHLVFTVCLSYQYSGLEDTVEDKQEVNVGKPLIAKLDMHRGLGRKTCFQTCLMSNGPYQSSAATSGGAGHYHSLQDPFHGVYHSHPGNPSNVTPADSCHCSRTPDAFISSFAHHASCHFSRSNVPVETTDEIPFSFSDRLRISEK
Method: Wild type and CRBN knockout 293T cells were treated with 10 μM of Example 1 or vehicle for 24 hours, and protein lysates were collected. The protein was analyzed by Western blot and immunoassayed for MALT1, CRBN, and Actin.
Wild type and CRBN knockout 293T cells were treated with 10 μM of Example 1 or vehicle for 24 hours, and protein lysates were collected. 80 μg of protein were analyzed by Western blot and immunoassayed for MALT1, CRBN and Actin.

MALT1 [2] = biological target: T1, MALT1; assay: MALT1 degradation assay (Western blot) in OCI-Ly3 cells; format: cell-based; set-up: endogenous in cells; host or cells: OCI-Ly3; conditions: 48 hours, normalized to Actin, relative to vehicle treated cells
Method: In the experiments, OCI-Ly3 cells were grown for 6 hours in the presence of the indicated concentrations of Examples 1-6, 9, and 10. Proteins were extracted, analyzed by Western blot, and membranes were immunoblotted for MALT1, CRBN, and Actin. Table 3 provides the results of experimental data obtained from the example compounds of the present disclosure. In particular, OCI-Ly3 cells were grown for 48 hours in the presence of the indicated concentrations of Examples 1-19. Proteins were extracted, analyzed by Western blot, and membranes were immunoblotted for MALT1, CRBN, and Actin. Western blot bands were quantified using Image Lab software. Results were normalized to Actin expression and presented as % MALT1 degradation relative to vehicle treated cells.

[3] = read-out: % MALT1 Degradation at 1 μM

| % MALT1 degradation at 1 µM (MALT1 [2]; [3]) | Structure (SMILES) | CRBN-dependent MALT1 degradation (MALT1 [1]) | % MALT1 degradation at 1 µM (MALT1 [2]) |
| --- | --- | --- | --- |
| 31 to 50% | C[C@@H](c1c(NC(=O)Nc2cnc(-n3nccn3)c(Cl)c2)cnc2cc(Cl)nn12)N(C)C(=O)CCOCCOCCOCCOCCNc1cccc2c1C(=O)N(C1CCC(=O)NC1=O)C2=O (stereo partly drawn) [Example 1, N—((S)-1-(2-Chloro-6-(3-(5-chloro-6-(2H-1,2,3-triazol-2-yl)pyridin-3-yl)ureido)pyrazolo[1,5-a]pyrimidin-7-yl)ethyl)-1-((2-(2,6-dioxopiperidin-3-yl)-1,3-dioxoisoindolin-4-yl)amino)-N-methyl-3,6,9,12-tetraoxapentadecan-15-amide] | promoted CRBN-dependent MALT1 degradation |  |
|  | CO[C@@H](C)c1c(NC(=O)Nc2cnc(-n3cc(CNC(=O)CCOCCOCCOCCN4CCN(Cc5ccc(COc6cccc7c6CN([C@H]6CCC(=O)NC6=O)C7=O)cc5)CC4)cn3)c(Cl)c2)cnc2cc(Cl)nn12 [Example 18, N-((1-(3-Chloro-5-(3-(2-chloro-7-((S)-1-methoxyethyl)pyrazolo[1,5-a]pyrimidin-6-yl)ureido)pyridin-2-yl)-1H-pyrazol-4-yl)methyl)-3-(2-(2-(2-(4-(4-(((2-((5)-2,6-dioxopiperidin-3-yl)-1-oxoisoindolin-4-yl)oxy)methyl)benzyl)piperazin-1-yl)ethoxy)ethoxy)ethoxy)propanamide] |  | >50% |
| > 50% | CO[C@@H](C)c1c(NC(=O)Nc2cc(Cl)cnc2OCCNC(=O)CCOCCOCCOCCN2CCN(Cc3ccc(COc4cccc5c4CN([C@H]4CCC(=O)NC4=O)C5=O)cc3)CC2)cnc2cc(Cl)nn12 [Example 19, N-(2-((5-Chloro-3-(3-(2-chloro-7-((S)-1-methoxyethyl)pyrazolo[1,5-a]pyrimidin-6-yl)ureido)pyridin-2-yl)oxy)ethyl)-3-(2-(2-(2-(4-(4-(((2-((S)-2,6-dioxopiperidin-3-yl)-1-oxoisoindolin-4-yl)oxy)methyl)benzyl)piperazin-1-yl)ethoxy)ethoxy)ethoxy)propanamide] |  |  |
